Results as given in patent US11220491B2, “Photoprotective compositions containing Malassezia-derived compounds and/or chemical analogs thereof” (Versicolor Technologies, LLC, priority 2018, dated 2022).

Assays:
[1] = target: T1, arylhydrocarbon receptor (AhR) (Homo sapiens, UniProt P35869); assay: HepG2-AhR-Luciferase assay; settings: EC50 (uM), 24 hours of treatment
T1 sequence (P35869 11-848): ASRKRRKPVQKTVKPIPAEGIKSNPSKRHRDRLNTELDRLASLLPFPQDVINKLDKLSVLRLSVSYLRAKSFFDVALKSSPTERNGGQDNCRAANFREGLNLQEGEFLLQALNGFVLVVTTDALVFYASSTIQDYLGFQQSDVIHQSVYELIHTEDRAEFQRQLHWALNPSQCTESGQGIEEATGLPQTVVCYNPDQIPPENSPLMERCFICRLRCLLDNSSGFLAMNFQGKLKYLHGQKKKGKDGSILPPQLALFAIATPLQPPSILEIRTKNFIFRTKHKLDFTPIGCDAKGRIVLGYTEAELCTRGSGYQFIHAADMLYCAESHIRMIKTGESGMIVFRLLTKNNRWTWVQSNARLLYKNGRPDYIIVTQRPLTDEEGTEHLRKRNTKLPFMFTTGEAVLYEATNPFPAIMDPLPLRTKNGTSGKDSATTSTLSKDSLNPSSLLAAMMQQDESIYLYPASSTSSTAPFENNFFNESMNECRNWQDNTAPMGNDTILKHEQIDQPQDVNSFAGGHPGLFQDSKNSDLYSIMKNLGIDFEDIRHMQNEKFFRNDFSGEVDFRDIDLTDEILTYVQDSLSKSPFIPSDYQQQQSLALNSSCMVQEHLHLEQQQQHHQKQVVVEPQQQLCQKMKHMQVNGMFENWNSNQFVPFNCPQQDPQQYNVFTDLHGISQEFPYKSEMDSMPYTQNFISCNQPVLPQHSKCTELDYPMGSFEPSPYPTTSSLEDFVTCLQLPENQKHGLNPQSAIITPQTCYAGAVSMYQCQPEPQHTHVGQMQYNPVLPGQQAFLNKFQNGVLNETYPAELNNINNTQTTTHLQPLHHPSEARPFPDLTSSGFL
Description: HepG2-AhR-Luc cells were purchased from Pharmaron, One-Glo Luciferase assay system was purchased from Promega. DMEM was purchased from Hyclone, and penicillin/streptomycin was purchased from Solabio.
Culture media for stably transfected HepG2 cells was prepared by supplementing DMEM with high glucose and L-glutamine, as well as 10% FBS.
HepG2-AhR-Luc cells were cultured in T-75 flasks at 37° C., 5% CO2, and 95% relative humidity. Cells were allowed to reach 80-90% confluence before detachment and splitting.
Cultivated cells were rinsed with 5 mL PBS. PBS was aspirated away, 1.5 mL trypsin was added to the flask, and cells were incubated at 37° C. for approximately 5 minutes or until the cells detached and floated. Trypsin was inactivated by adding excess serum-containing media.
The cell suspension was transferred to a conical tube and centrifuged at 120 g for 10 minutes to pellet the cells. Cells were resuspended in seeding media at a proper density. 40 μL of cells were transferred to a 384-well culture plate (5×10^3 cells/well). Plates were placed in the incubator at 37° C. for 24 hours.
Afterward, stock solutions of test compounds and omeprazole positive control were prepared. Compound solutions were transferred into the assay plate using Echo550. The plate was then placed back into the incubator for compound treatment.
Later, after 24 hours of treatment, the plate was removed from the incubator and allowed to cool at ambient temperature. 30 μL One-Glo reagent equal to that of the culture medium was added in each well. Cells were allowed to lyse for at least 3 minutes, and then measured in a luminometer.
Dose responses were graphed using the non-linear regression analysis in XLfit and EC50 values were also calculated.

[2] = system: MelanoDerm™ Skin Model; assay: MelanoDerm Study 1, MTT tissue viability (Example 19); format: cell-based, human; settings: 200 μM compared to 50 μM
From the text: Treatments were as follows: 7-days of treatment in alternate days (7TD); 7-days of treatment in alternate days followed by 7-days without treatment (recovery) (7TD+7NTD); and 14-days of treatment in alternate days (14TD). The study also evaluated the potential dermal irritation induced by each test article as measured by the conversion of MTT by MelanoDerm™ tissues after repeated exposures to the test articles, over the treatment periods specified in the protocol.
(Berridge et al., 1996). The toxicity of the test articles to the tissue, which is evidence for potential dermal irritation, was determined by measuring the relative survival—the MTT conversion relative to the negative control-treated tissues.
The test articles, CV-8686 and AB11644, were provided as stock solutions (˜100 mM each) in DMSO. The test articles were administered to the test system as a 50 μM and 200 μM dilution in sterile, EPI-100-LLMM. Test article DMSO (vehicle control) was administered to the test system as a 0.2% dilution in sterile, EPI-100-LLMM.
The test articles were each prepared using the procedure as follows: starting from the stock concentrations provided, 2 μl of each test article were first diluted with the appropriate volume of EPI-100-LLMM to a final concentration of 200 μM. […]

[3] = system: WM115 cells; assay: CellTiter-Glo cell viability assay (Example 9); format: cell-based; settings: 100, 10, 1 μM; 6, 24, 48, 72 hours
Description: (§1) CellTiter-Glo® 2.0 assay was purchased from Promega. Cell seeding, preparation of the compound source plate, and exposure of cells to test compounds were performed as described in Example 8.
(§2) CellTiter-Glo® reagents were thawed and equilibrated to room temperature before the experiment. 40 μL of CellTiter-Glo® reagent was then added to each well for detection (at 1:1 ratio to culture medium). The plates were then incubated at room temperature for 30 minutes and read using EnSpire (PerkinElmer) plate reader. The remaining activity was calculated according to the following formula: Remaining Activity (%)=100%×(Lumsample−Lumbkg)/(Lumvehicle−Lumbkg).

[4] = system: MeWo cells; assay: Annexin V assay, additional evaluation (Example 8); format: cell-based; settings: 100, 10, 1 μM; 6, 24, 48, 72 hours
Description: (§3) To further investigate the impact of test compounds on apoptosis, multiple readouts, covering different stages of apoptosis, were carried out on both MeWo and WM115 cells. Both cell types were treated with test compounds at 3 doses (100 μM, 10 μM, and 1 μM). Staurosporine was used as a positive control. […] The test compounds evaluated were CV-8684. CV-8685, and CV-8688.
(§4) Cell seeding was performed as discussed above with the following exceptions: the final cell density was 4,000 cells/well for 6-hour and 24-hour detections, whereas 2,000 cells/well were used for 48-hour and 72-hour detections. For each time point. 384-well clear bottom plates (Corning 3712) and solid white bottom plates (Corning 3570) were prepared. The plates were incubated as discussed above.
(§5) For preparation of the compound source plate, each test compound was dissolved in DMSO to 10 mM stock. Two additional concentrations were generations by 10-fold dilution to 1 mM and 0.1 mM. Staurosporine was used as positive control and 1% DMSO was employed as vehicle (negative) control. The compound source plate was spun at room temperature at 1,000 RPM for 1 minute and agitated using a plate shaker for 2 minutes.
(§6) 400 nL of test compound was transferred from the compound source plate to 384-well culture plates using Echo550 liquid handler. After 6, 24, 48, and 72 hours, the plates were removed from the incubator for detections.
(§7) Culture media was removed and cells were washed twice with PBS. 20 μL of pre-mixed annexin V-FITC working solution was added to each well. The cells were incubated at room temperature for 20 minutes. Plates were read using Acumen eX3 to count the number of FITC-positive cells. The relative activity was calculated according to the following formula: Relative Activity (%)=100%×(Countsample/Countvehicle).

[5] = system: WM115 cells; assay: Annexin V assay, additional evaluation (Example 8); format: cell-based; settings: 100, 10, 1 μM; 6, 24, 48, 72 hours
Description: as §3, §4, §5, §6, §7

[6] = system: MeWo cells; assay: CellTiter-Glo cell viability assay (Example 9); format: cell-based; settings: 100, 10, 1 μM; 6, 24, 48, 72 hours
Description: as §1, §2

[7] = system: MeWo cells; assay: Preliminary annexin V-FITC assay (Example 7); format: cell-based; settings: 6-hour treatment
Description: MeWo (ATCC® HTB-65™) and WM115 (ATCC® CRL-1675) cells were purchased from ATCC (Manassas, Va.) and maintained in the following: for MeWo:DMEM supplemented with 10% FBS; for WM115: RPMI 1640 supplemented with 10% FBS (10% FBS, 1% stabilized antibiotic anti-mycotic solution).
During the first set of studies, both MeWo and WM115 cells were treated with test compounds at 10 doses starting from 100 μM with 3-fold dilution. Staurosporine was used as positive control. After 6-hour treatment, cell apoptosis was assessed using an annexin V assay. The test compounds evaluated were CV-8684, CV-8685, CV-8686, CV-8687, and CV-8688.
For cell seeding, cells were harvested and the cell number was determined using Countess® cell counter. Cells were then diluted with culture medium to the desired density. 40 μL of cell suspension per well was added to the required number of wells in a 384-well plate (Corning 3712—clear bottom plate). The final cell density was 6,000 cells/well. After plating, the plates were incubated at 37° C., and 5% CO2 overnight.
For preparation of compound source plate, each test compound was dissolved in DMSO to 10 mM stock. 3-fold serial dilution was performed using an EVO200™ liquid handler (TECAN) to generate ten concentrations of test compound. 0.1% DMSO was employed as vehicle (negative) control. The compound source plate was then spun at room temperature at 1,000 RPM for 1 minute and agitated using a plate shaker for 2 minutes.
For compound treatment, 40 nL of compound were transferred from the compound source plate to the 384-well culture plate using liquid handler Echo550 (LabCyte Inc.). After 6-hour incubation, the plates were removed from the incubator for detection.
For the preliminary annexin V assay, the plates were removed from the incubator and allowed to equilibrate at room temperature for 15 minutes. Culture media was then removed. 20 μL of pre-mixed annexin V-FITC and Hoechst33342 dye working solution were added to each well. The cells were then incubated at room temperature for 20 minutes. […] Afterward, the plate was read using an Acumen eX3 plate reader. The relative activity was calculated according to the following formula: Activity (%)=100%×(CountAnnexin V/CountTotal cell), and EC50 was calculated using GraphPad Prism (v. 5.01).

[8] = system: WM115 cells; assay: Cell morphology after treatment (Example 6); format: cell-based; settings: 100 μM, 6 hours
[9] = system: MeWo cells; assay: Lactate dehydrogenase (LDH) release assay (Example 10); format: cell-based; settings: 100, 10, 1 μM; 6, 24, 48, 72 hours
Description: (§8) The LDH assay quantitatively measures lactate dehydrogenase (“LDH”) released into the media from damaged cells as a biomarker for cytotoxicity and cytolysis.
(§9) CytoTox-ONE™ Homogenous Membrane Integrity Assay was purchased from Promega. Cell seeding, preparation of the compound source plate, and exposure of cells to test compounds were performed as described in Example 8.
(§10) Plates were then centrifuged at 1,000 RPM for 1 minute. 20 μL of cell culture medium was transferred into a new 384-well black solid plate. Then, 20 μL of CytoTOX-ONE™ was added into each well and incubated at room temperature for 10 minutes. Afterward, 10 μL of stop solution were added to each well, and the plates were agitated at 500 rpm for 1 minute. Plates were read using an excitation wavelength of 560 nm and an emission wavelength of 590 nm on EnSpire. The relative activity was calculated according to the following formula: Relative Activity (%)=100%×(Lumsample−Lumbkg)/(Lumvehicle−Lumbkg).

[10] = system: WM115 cells; assay: as above; format: cell-based; settings: 100, 10, 1 μM; 6, 24, 48, 72 hours
Description: as §8, §9, §10

[11] = system: MeWo cells; assay: Cell morphology after treatment (Example 6); format: cell-based; settings: 100 μM, 6 hours

| EC50 ([1]; Table 1) [µM] | EC50 ([1]; Table 2) [µM] | EC50 ([7]; Homo sapiens, MeWo, 10 doses starting from 100 μM, read-out: EC50 of annexin V staining) [µM] | SMILES | viability of the tissues, dose response [2] | inhibition of cell viability [3] | apoptosis induction (annexin V binding) [4] | apoptosis induction (annexin V binding) [5] | inhibition of cell viability [6] | annexin V staining ([7]; preliminary screen) | cell morphology [8] | LDH release [9] | LDH release [10] | cell morphology [11] |
| --- | --- | --- | --- | --- | --- | --- | --- | --- | --- | --- | --- | --- | --- |
| 3.17 | – | – | Cc1ccc2c(Cc3[nH]c4ccccc4c3C=O)c[nH]c2c1 [CV-8686] | slightly lower viability | – | – | – | – | – | – | – | – | – |
| – | 14.9 | – | c1ccc2c(C(c3c[nH]c4ccccc34)C3CC3)c[nH]c2c1 [AB11644] | slightly lower viability | – | – | – | – | – | – | – | – | – |
| 19.9 | – | 0.909 | CC(c1[nH]c2ccccc2c1C=O)c1c[nH]c2ccccc12 (stereo not drawn) [CV-8688] | – | inhibited viability of both cell types in a dose-dependent manner | showed the induction effect within 6 hours of treatment in a dose-dependent manner | showed the induction effect within 6 hours of treatment in a dose-dependent manner | inhibited viability of both cell types in a dose-dependent manner | markedly increased annexin V staining | significantly affected | induced LDH release at the highest concentration tested | induced LDH release at the highest concentration tested | significantly affected |
